How the values were obtained:
human PKR1 = human PKR1 (Homo sapiens, UniProt Q8TCW9); experiment: Competition cell-binding assay with ^125I-MIT-1 on CHO-PKR1 cells; settings: PC-10 binding IC50 vs PC-7 functional IC50 (33 nM)
CHO-PKR1 cells = experiment: Cell uptake, internalization and efflux of ^18F-PC-10; type: cell-based, Chinese hamster
[1] = tested on: CFA-induced inflamed paw (PKR1-expressing); experiment: Small-animal PET of CFA-induced inflammatory pain model; type: in vivo, C57BL/6 mice
[2] = Ex vivo biodistribution in CFA-treated mice; design: species or system C57BL/6 mice; settings: 2 h after injection

Sequence of human PKR1 (Q8TCW9 whole entry): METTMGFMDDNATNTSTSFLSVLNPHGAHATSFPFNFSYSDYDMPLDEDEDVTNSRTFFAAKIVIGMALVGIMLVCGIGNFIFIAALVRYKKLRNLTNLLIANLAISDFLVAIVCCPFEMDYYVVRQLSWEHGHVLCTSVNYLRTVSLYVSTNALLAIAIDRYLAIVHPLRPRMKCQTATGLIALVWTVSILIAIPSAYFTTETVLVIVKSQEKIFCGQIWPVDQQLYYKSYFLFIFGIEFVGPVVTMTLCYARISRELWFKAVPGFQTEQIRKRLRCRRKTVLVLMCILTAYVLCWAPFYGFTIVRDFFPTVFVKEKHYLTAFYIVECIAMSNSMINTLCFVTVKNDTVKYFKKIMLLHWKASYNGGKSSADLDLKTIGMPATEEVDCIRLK

Structure (SMILES)	binding affinity to PKR1 lower than functional IC50 of PC-7 (human PKR1)	time at which cell uptake reached a plateau (CHO-PKR1 cells; 37°C)	time at which internalization reached a plateau (CHO-PKR1 cells; 37°C, stable up to 2 h)	part of observed uptake due to internalization (CHO-PKR1 cells; acid buffer pH 2.8 wash)	time after medium replacement at which half of the activity was unbound (efflux) (CHO-PKR1 cells; after 2 h loading)	time at which efflux reached a plateau (CHO-PKR1 cells; after medium replacement)	decrease of uptake in inflamed paw by blocking ([1]; 1 h after injection, coinjected with excess PC-7)	uptake in control paw ([1]; PET, 2 h after injection)	activity in blood [2]	uptake in bone [2]	uptake in kidneys [2]	uptake in liver [2]	uptake in salivary gland [2]
COc1ccc(Cn2c(NCCNC(=N)NC(=O)c3ccc(F)cc3)nc(=O)n(Cc3ccc(F)cc3)c2=O)cc1 [PC-10, N-(4-fluoro-benzoyl)-N′-{2-[5-(4-fluoro-benzyl)-1-(4-methoxy-benzyl)-4,6-dioxo-1,4,5,6-tetrahydro-[1,3,5]triazin-2-ylamino]-ethyl}-guanidine]	3 fold												
COc1ccc(Cn2c(NCCNC(=N)NC(=O)c3ccc([18F])cc3)nc(=O)n(Cc3ccc(F)cc3)c2=O)cc1 [^18F-PC-10, N-(4-^18F-fluoro-benzoyl)-N′-{2-[5-(4-fluoro-benzyl)-1-(4-methoxy-benzyl)-4,6-dioxo-1,4,5,6-tetrahydro-[1,3,5]triazin-2-ylamino]-ethyl}-guanidine]		0.5 h	0.5 h	Approximately half	≤ 15 min	1 h	approximately 70%	0.13 ± 0.01 %ID/g	0.22 ± 0.05 %ID/g	0.69 ± 0.12 %ID/g	5.26 ± 1.06 %ID/g	3.80 ± 1.14 %ID/g	3.05 ± 1.10 %ID/g

Reference: PMC3629974 (Journal of nuclear medicine : official publication, Society …, 2011)
